The source of these data is paper PMC3474888 (Pharmaceutical research, 2012).

Structures are written as SMILES.

The test relates to tubulin. In words: tubulin assembly inhibition, turbidimetry at […] nm. In kind it is biochemical, Bos taurus. As to conditions: read-out: Inhibition of / Tubulin Assembly IC50±SD.

As for `COc1ccc(N(C)c2nc(C)nc3cc[nH]c23)cc1` [compound 3, N-(4-Methoxyphenyl)-N,2-dimethyl-5H-pyrrolo[3,2-d]pyrimidin-4-amine], the IC50 was found to be 10 ± 0.6 µM.
